Experimental data from paper PMC9027509, “Modulation of Paracellular-like Drug Transport across an Artificial Biomimetic Barrier by Osmotic Stress-Induced Liposome Shrinking” (Pharmaceutics, 2022).

Experiments:
Type in all cases: in vitro ADME
[1] = Permeability across the lipid layer of PermeaPad calculated from Papp and Psup (Equation 3); settings: for Papp: not told, calculated 1/Papp=1/Plip+1/Psup; for Permeation across lipid layer, fold higher with 50 mOsm/kg pretreatment: 50 mOsm/kg versus 300 mOsm/kg NaCl pretreatment
From the text: The permeation across the lipid layer (Plip) has been calculated using Equation (3) (Di Cagno et al., 2015). The inverse of each permeability constant represents the resistance. The sum of the resistance of the lipid layer and the support layer (Psup) composing the PermeaPad® barrier gives the resistance of the whole barrier. (3) 1/Papp=1/Plip+1/Psup

[2] = Permeation across PermeaPad barrier, reversed Franz cell setup, after NaCl pretreatment; settings: for Papp: permeation in 300 mOsm PBS pH 6.5, 37 °C, mean ± SD, read-out: Permeability across PermeaPad®; for Papp, mean: supplement raw data, mean of replicates A-C; for Increase of apparent permeability across the PermeaPad® barrier upon hypo-osmotic pretreatment: hypo-osmotic pretreatment (soaking in hypotonic medium); for Increase of permeability in PBS across PermeaPad®: pretreated with NaCl solutions of 50, 150, or 900 mOsm/kg compared to 300 mOsm/kg; for Change of permeability across PermeaPad® after hyper-osmotic pretreatment (in words): pretreatment with 900 mOsm/kg NaCl solution versus 300 mOsm, p < 0.05
Description: (§1) During these studies, phosphate-buffered saline (PBS) was used as the acceptor medium and for the preparation of donor media for permeation experiments. The liposomes were allowed to form within the barrier by soaking the dry sandwich barrier (PermeaPad) in hypo-, iso-, or hyper-osmotic media and compared to the PBS by using NaCl solutions of different osmolalities. PBS was prepared by dissolving 35 mM sodium phosphate dibasic dihydrate and 75 mM sodium phosphate monobasic monohydrate in water. Then, the pH was adjusted to 6.5 by adding 0.1 M HCl or 0.1 M NaOH. Finally, the osmolality was measured on a semi-micro osmometer K-7400 from KNAUER Wissenschaftliche Geräte GmbH (Berlin, Germany), and NaCl was added to obtain an osmolality of 300 mOsm. Solutions of NaCl were prepared by dissolving NaCl in purified water to obtain osmolalities of 50, 150, 250, 300, 350, 450 and 900 mOsm.
(§2) The acyclovir solution was prepared by dissolving 1 mg/mL acyclovir in PBS. […] The stock of calcein was prepared by dissolving 2.8 g calcein in 30 mL water before adjusting the pH to 6.5 with 4 M NaOH (~20 mL), and the osmolality of the stock was adjusted to 300 mOsm with NaCl. […] The saturated celecoxib suspensions were prepared by suspending 1 mg/mL of celecoxib in PBS. The suspension was then sonicated for 10 min and left in the shaking water bath at 50 rpm and 37 °C for 40 h before starting the permeation experiments.
(§3) For the permeation experiments, we used the reversed Franz cell setup from Permegear (Hellertown, PA, USA) with the donor in the bottom chamber (8 mL) and the acceptor in the top chamber (2 mL). The two compartments were either separated by PermeaPad® or a sandwich consisting of two pieces of the support sheet representing the support layer of PermeaPad® (with no lipids). The barriers were kindly donated by InnoMe GmbH (Espelkamp, Germany). A cylindrical stir bar (2 mm diameter × 8 mm length) was spinning at 500 rpm at the bottom of the donor compartment. The temperature of the Franz cells was kept constant at 37 °C by a circulating water system.
(§4) Prior to the permeation experiments, the barrier was exposed to NaCl solutions ranging from 50 to 900 mOsm for 30 min by simply adding 2 mL of the NaCl solution to the top compartment. The NaCl solutions were removed from the top compartment right before initiating the permeation experiments.
(§5) For the permeation experiments, the system was kept assembled after the NaCl pretreatment, and the bottom compartment was filled with 8 mL of donor solution/suspension, followed by the addition of 2 mL PBS to the top compartment. […] All samples were replaced by the same volume of PBS to keep the acceptor volume constant and to maintain sink conditions. Before and after experiments, donor samples were withdrawn to keep track of the mass balance (see the Supplementary Materials).
(§6) The column temperature was 40 °C during measurement. […] All quantification was with a freshly prepared calibration curve in the relevant range.
(§7) The flux was determined by plotting the cumulative amount of a drug compound permeation (dQ) normalized to the permeation area (A) (1 cm^2) against time (dt), with the flux (J) equal to the slope. (1) J=dQ/A·dt
(§8) We assumed that the change in the donor concentration over the experiments was negligible. The apparent permeability (Papp) was equal to the flux normalized to the starting donor concentration (C0). (2) Papp=J/C0

[3] = Permeation across lipid-free support sheets (support layer of PermeaPad), reversed Franz cell setup; settings: for Papp: 300 mOsm PBS pH 6.5, 37 °C, mean ± SD, read-out: Permeability across support layer; for Papp, mean: supplement raw data, Support sheet, 30 min pretreatment, mean of replicates A-C
Description: as §1, §2, §3, §4, §5, §6, §7, §8

[4] = pH 6.5, pretreatment with 50 mOsm/kg NaCl solution
[5] = pH 6.5, pretreatment with 300 mOsm/kg NaCl solution
[6] = pH 6.5, barrier pretreated 30 min with 50 mOsm/kg NaCl solution
[7] = pH 6.5, barrier pretreated 30 min with 300 mOsm/kg NaCl solution
[8] = PermeaPad, osmolality 50, 30 min pretreatment
[9] = PermeaPad, osmolality 150, 30 min pretreatment
[10] = PermeaPad, osmolality 300, 30 min pretreatment
[11] = PermeaPad, osmolality 450, 30 min pretreatment
[12] = PermeaPad, osmolality 900, 30 min pretreatment
[13] = pH 6.5, pretreated 30 min with 50 mOsm/kg NaCl solution
[14] = pH 6.5, pretreated 30 min with 300 mOsm/kg NaCl solution

Row | Papp [1, 4] [×10⁻⁶ cm/s] | Papp [1, 5] [×10⁻⁶ cm/s] | Papp [2, 6] [×10⁻⁶ cm/s] | Papp [2, 7] [×10⁻⁶ cm/s] | Papp, mean [2, 8] | Papp, mean [2, 9] | Papp, mean [2, 10] | Papp, mean [2, 11] | Papp, mean [2, 12] | Papp [3, 13] [×10⁻⁶ cm/s] | Papp [3, 14] [×10⁻⁶ cm/s] | Papp, mean ([3]; osmolality 50) | Papp, mean ([3]; osmolality 300) | Permeation across lipid layer, fold higher with 50 mOsm/kg pretreatment [1] [fold] | Increase of apparent permeability across the PermeaPad® barrier upon hypo-osmotic pretreatment [2] | Increase of permeability in PBS across PermeaPad® [2] | Change of permeability across PermeaPad® after hyper-osmotic pretreatment (in words) [2] | further results | Structure (SMILES)
1 | 34.2 ± 18.1 | 26.2 ± 11.2 | 17.9 ± 7.48 | 15.9 ± 4.99 | 17.95 10-6 | 12.5 10-6 | 15.92 10-6 | 16.62 10-6 | 17.85 10-6 | 46.3 ± 2.23 | 46.2 ± 2.74 | 46.3348 10-6 | 46.16 10-6 |  |  |  |  | Change of permeability across PermeaPad® with different pretreatments (in words) ([2]; NaCl pretreatment solutions from 50 to 900 mOsm/kg compared to 300 mOsm/kg): no significant changes; Change of permeation across PermeaPad® upon hypo-osmotic pretreatment (in words) ([2]; hypo-osmotic pretreatment): remained unchanged | Cc1ccc(-c2cc(C(F)(F)F)nn2-c2ccc(S(N)(=O)=O)cc2)cc1 [Celecoxib, celecoxib]
2 | 0.8 ± 0.07 | 0.4 ± 0.02 | 0.61 ± 0.04 | 0.35 ± 0.01 | 0.6055 10-6 | 0.6047 10-6 | 0.3505 10-6 | 0.3884 10-6 | 0.5604 10-6 | 2.51 ± 0.3 | 2.84 ± 0.54 | 2.509 10-6 | 2.835 10-6 | 2.0 | approximately 2.0 fold | 1.5–2 fold | increased significantly | Difference in permeation across PermeaPad® between 2 and 30 min pretreatment ([2]; 50 and 300 mOsm/kg NaCl solutions, p > 0.05): no significant differences; Papp, mean ([2]; PermeaPad (2 min pretreatment), osmolality 50): 0.5524 10-6; Papp, mean ([2]; PermeaPad (2 min pretreatment), osmolality 300): 0.3418 10-6; Papp, mean ([2]; PermeaPad, osmolality 250, 30 min pretreatment): 0.3074 10-6; Papp, mean ([2]; PermeaPad, osmolality 350, 30 min pretreatment): 0.3633 10-6 | O=C(O)CN(CC(=O)O)Cc1cc2c(cc1O)Oc1cc(O)c(CN(CC(=O)O)CC(=O)O)cc1C21OC(=O)c2ccccc21 [Calcein, calcein]
3 | 4.71 ± 0.78 | 2.74 ± 0.38 | 4.07 ± 0.6 | 2.52 ± 0.33 | 4.068 10-6 | 3.864 10-6 | 2.527 10-6 | 3.76 10-6 | 4.675 10-6 | 32.7 ± 1.87 | 33.2 ± 1.79 | 32.67 10-6 | 33.19 10-6 | 1.7 | ~1.7 fold | 1.5–2 fold | increased significantly |  | Nc1nc2c(ncn2COCCO)c(=O)[nH]1 [Acyclovir, acyclovir]
